From the CheMixHub ionic liquid set

Assay: xn = mol fraction of the nth substance listed

C[N+](C)(C)CCC[n+]1ccccc1.N#C[N-]C#N.N#C[N-]C#N + CO
100 kPa
Conditions | viscosity [mPa·s]
293.15 K, x1 = 0.3999 | 69.9
293.15 K, x1 = 0.8995 | 950
303.15 K, x1 = 0.5002 | 78.6
303.15 K, x1 = 0.7003 | 184
313.15 K, x1 = 0.0999 | 3.18
313.15 K, x1 = 0.3999 | 31.9
313.15 K, x1 = 0.5002 | 53.3
313.15 K, x1 = 0.7998 | 145
313.15 K, x1 = 1 | 386
323.15 K, x1 = 0.3002 | 13.6
323.15 K, x1 = 0.3999 | 23.6
323.15 K, x1 = 0.5002 | 38.3
323.15 K, x1 = 0.6001 | 54.1
333.15 K, x1 = 0.0999 | 2.54
333.15 K, x1 = 0.2001 | 6.12
333.15 K, x1 = 0.3999 | 18.5
333.15 K, x1 = 0.6001 | 38.5

NC(N)=NCCC[C@H](N)C(=O)O + CCCC[n+]1ccn(C)c1.[Br-] + O
viscosity [mPa·s], 101.3 kPa
Conditions | 293.15 K | 298.15 K | 303.15 K | 308.15 K | 313.15 K
x1 = 0.000359, x2 = 0 | 1.013 | 0.904 | 0.839 | 0.771 | 0.691
x1 = 0.0003655, x2 = 0.00072 | 1.037 | 0.922 | 0.833 | 0.754 | 0.688
x1 = 0.0003655, x2 = 0.001439 | 1.058 | 0.914 | 0.816 | 0.744 | 0.675
x1 = 0.0007208, x2 = 0 | 1.025 | 0.915 | 0.851 | 0.783 | 0.703
x1 = 0.0007266, x2 = 0.0007198 | 1.048 | 0.933 | 0.844 | 0.766 | 0.7
x1 = 0.0007324, x2 = 0.001438 | 1.069 | 0.925 | 0.827 | 0.756 | 0.686
x1 = 0.001079, x2 = 0 | 1.036 | 0.927 | 0.863 | 0.795 | 0.715
x1 = 0.001088, x2 = 0.0007195 | 1.059 | 0.944 | 0.855 | 0.777 | 0.712
x1 = 0.001098, x2 = 0.001438 | 1.08 | 0.936 | 0.838 | 0.767 | 0.698
x1 = 0.001446, x2 = 0 | 1.047 | 0.938 | 0.874 | 0.806 | 0.726
x1 = 0.001452, x2 = 0.0007192 | 1.07 | 0.955 | 0.866 | 0.788 | 0.723
x1 = 0.001462, x2 = 0.001437 | 1.091 | 0.947 | 0.849 | 0.778 | 0.709
x1 = 0.001811, x2 = 0.000719 | 1.081 | 0.966 | 0.877 | 0.799 | 0.734
x1 = 0.00182, x2 = 0 | 1.059 | 0.949 | 0.885 | 0.817 | 0.737
x1 = 0.001827, x2 = 0.001437 | 1.102 | 0.958 | 0.86 | 0.789 | 0.72
x1 = 0.002121, x2 = 0.001436 | 1.114 | 0.97 | 0.872 | 0.801 | 0.732
x1 = 0.002158, x2 = 0 | 1.073 | 0.961 | 0.897 | 0.829 | 0.749
x1 = 0.002174, x2 = 0.0007187 | 1.093 | 0.978 | 0.889 | 0.811 | 0.746
x1 = 0.002516, x2 = 0 | 1.087 | 0.975 | 0.911 | 0.843 | 0.763
x1 = 0.002537, x2 = 0.0007185 | 1.106 | 0.991 | 0.902 | 0.824 | 0.759
x1 = 0.002557, x2 = 0.001436 | 1.127 | 0.983 | 0.885 | 0.814 | 0.745

CCCC[P+](CC)(CC)CC.N#Cc1ccc[n-]1 + OCC(O)CO
100 kPa
Conditions | electrical conductivity, 293.15 K [S/m] | viscosity, 293.15 K [mPa·s] | viscosity, 298.15 K [mPa·s] | viscosity, 303.15 K [mPa·s] | viscosity, 313.15 K [mPa·s]
x1 = 0.002 | 0.0013 | – | – | – | –
x1 = 0.004 | 0.0027 | 1395 | 880 | 562 | 226
x1 = 0.006 | 0.0041 | – | – | – | –
x1 = 0.008 | 0.0055 | – | – | – | –
x1 = 0.011 | 0.0073 | – | – | – | –
x1 = 0.014 | 0.009 | – | – | – | –
x1 = 0.018 | 0.0106 | 1500 | 950 | 599 | 234
x1 = 0.021 | 0.0118 | – | – | – | –
x1 = 0.026 | 0.0135 | – | – | – | –
x1 = 0.029 | 0.0143 | – | – | – | –
x1 = 0.033 | 0.0151 | – | – | – | –
x1 = 0.04 | 0.0162 | 1598 | 1015 | 648 | 256
x1 = 0.047 | 0.0175 | – | – | – | –
x1 = 0.058 | 0.0181 | 1701 | 1080 | 690 | 282
x1 = 0.068 | 0.0188 | – | – | – | –
x1 = 0.08 | 0.0186 | 1713 | 1086 | 690 | 277
x1 = 0.104 | 0.0187 | 1609 | 1023 | 655 | 268
x1 = 0.129 | 0.0185 | 1486 | 930 | 569 | 222
x1 = 0.187 | 0.018 | 1202 | 770 | 483 | 200
x1 = 0.259 | 0.0182 | 930 | 603 | 386 | 166
x1 = 0.34 | 0.0225 | 740 | 487 | 318 | 142
x1 = 0.442 | 0.0297 | 589 | 398 | 265 | 123
x1 = 0.577 | 0.0413 | 479 | 323 | 220 | 107
x1 = 0.743 | 0.0623 | 359 | 242 | 168 | 81
x1 = 0.85 | 0.0878 | 250 | 175 | 123 | 62
x1 = 1 | 0.147 | 187 | 137 | 104 | 62

COCCOCCOC + CCCC[n+]1ccn(C)c1.O=S(=O)([N-]S(=O)(=O)C(F)(F)F)C(F)(F)F
Conditions | electrical conductivity [S/m]
294.5 K, 100 kPa, x2 = 0.03433 | 0.44
